In patent US8697727B2, “N-substituted-heterocycloalkyloxybenzamide compounds and methods of use” (Rigel Pharmaceuticals, Inc., priority 2006, dated 2014):
Blank lines part the entries; values can stand above or below the compound they belong to.

Test system: AMPK
Assay: AMPK activation, enzyme-linked immunosorbent assay
Format: cell-based
Summary of the method: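 Cell-based assay in which AMPK activity was measured as the relative concentration of phosphorylated acetyl-CoA carboxylase, a product of AMPK, by enzyme-linked immunosorbent assay. The endpoint is the EC50 for AMPK activation of each compound. EC50 values were reported in ranges: less than 1 μM, 1-10 μM, 10-20 μM, 20-50 μM, 50-100 μM, and >100 μM.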

SMILES: O=C(NC1CCN(Cc2ccccc2)CC1)c1cccc(OC2CCN(c3ccccn3)CC2)c1 [Compound 86, N-(1-benzylpiperidin-4-yl)-3-(1-(pyridin-2-yl)piperidin-4-yloxy)benzamide]
- EC50: < 1 µM

SMILES: N#Cc1ccc(CN2CCC(Oc3ccc(C(=O)NC4CCN(Cc5ccccn5)CC4)cc3)CC2)cc1 [Compound 85, 4-(1-(4-cyanobenzyl)piperidin-4-yloxy)-N-(1-(pyridin-2-ylmethyl)piperidin-4-yl)benzamide]
- EC50: < 1 µM

SMILES: Cc1ccc(CN2CCC(Oc3ccc(C(=O)NC4CCN(Cc5ccc(F)cc5)CC4)cc3Cl)CC2)cc1 [Compound 68, 3-chloro-N-(1-(4-fluorobenzyl)piperidin-4-yl)-4-(1-(4-methylbenzyl)piperidin-4-yloxy)benzamide]
- EC50: < 1 µM

SMILES: Cc1ccc(CN2CCC(Oc3ccc(C(=O)NCCCN4CCOCC4)cc3)CC2)cc1 [Compound 104, 4-(1-(4-methylbenzyl)piperidin-4-yloxy)-N-(3-morpholinopropyl)benzamide]
- EC50: 10 to 20 µM

SMILES: O=C(NC1CCN(Cc2ccccc2)CC1)c1cccc(OC2CCN(c3ccc(C(F)(F)F)cc3)CC2)c1 [Compound 46, N-(1-benzylpiperidin-4-yl)-3-(1-(4-(trifluoromethyl)phenyl)piperidin-4-yloxy)benzamide]
- EC50: < 1 µM

SMILES: Cc1ccc(CN2CCC(Oc3ccc(C(=O)NC4CCN(Cc5ccccc5)CC4)cc3F)CC2)cc1 [Compound 42, N-(1-benzylpiperidin-4-yl)-3-fluoro-4-(1-(4-methylbenzyl)piperidin-4-yloxy)benzamide]
- EC50: < 1 µM

SMILES: O=C(O)c1ccc(CN2CCC(NC(=O)c3ccc(OC4CCN(c5ccc(C(F)(F)F)cc5)CC4)c(F)c3)CC2)cc1 [Compound 35, 4-((4-(3-fluoro-4-(1-(4-(trifluoromethyl)phenyl)piperidin-4-yloxy)benzamido)piperidin-1-yl)methyl)benzoic acid]
- EC50: 1 to 10 µM

SMILES: O=C(NC1CCN(Cc2ccccc2)CC1)c1cccc(OC2CCN(Cc3ccccc3)CC2)c1 [Compound 13, N-(1-benzylpiperidin-4-yl)-3-(1-benzylpiperidin-4-yloxy)benzamide]
- EC50: 20 to 50 µM

SMILES: COc1ccc(CN2CCC(Oc3ccc(C(=O)NCCCNC(=O)OC(C)(C)C)cc3Cl)CC2)cc1 [Compound 97, tert-butyl 3-(3-chloro-4-(1-(4-methoxybenzyl)piperidin-4-yloxy)benzamido)propylcarbamate]
- EC50: 1 to 10 µM

SMILES: CC(C)(C)c1ccc(CN2CCC(Oc3ccc(C(=O)NC4CCN(Cc5ccccc5)CC4)cc3Cl)CC2)cc1 [Compound 16, N-(1-benzylpiperidin-4-yl)-4-(1-(4-tert-butylbenzyl)piperidin-4-yloxy)-3-chlorobenzamide]
- EC50: < 1 µM

SMILES: O=C(NCCCN1CCOCC1)c1ccc(OC2CCN(Cc3ccc(Cl)cc3)CC2)cc1 [Compound 100, 4-(1-(4-chlorobenzyl)piperidin-4-yloxy)-N-(3-morpholinopropyl)benzamide]
- EC50: 1 to 10 µM

SMILES: N#Cc1ccc(CN2CCC(NC(=O)c3ccc(OC4CCN(c5ccc(C#N)cc5)CC4)c(F)c3)CC2)cc1 [Compound 45, N-(1-(4-cyanobenzyl)piperidin-4-yl)-4-(1-(4-cyanophenyl)piperidin-4-yloxy)-3-fluorobenzamide]
- EC50: < 1 µM

SMILES: O=C(NC1CCN(Cc2ccccc2)CC1)c1ccc(OC2CCN(c3ccc(C(F)(F)F)cc3)CC2)cc1Cl [Compound 47, N-(1-benzylpiperidin-4-yl)-2-chloro-4-(1-(4-(trifluoromethyl)phenyl)piperidin-4-yloxy)benzamide]
- EC50: < 1 µM

SMILES: N#Cc1ccc(N2CCC(Oc3cccc(C(=O)NC4CCN(Cc5ccncc5)CC4)c3)CC2)cc1 [Compound 88, N-(1-(pyridin-4-ylmethyl)piperidin-4-yl)-3-(1-(4-cyanophenyl)piperidin-4-yloxy)benzamide]
- EC50: 1 to 10 µM

SMILES: O=C(NC1CCN(Cc2ccccc2)CC1)c1cccc(OC2CCN(c3ccncc3)CC2)c1 [Compound 53, N-(1-benzylpiperidin-4-yl)-3-(1-(pyridin-4-yl)piperidin-4-yloxy)benzamide]
- EC50: 10 to 20 µM

The next lines start with the values.

- EC50: 1 to 10 µM
SMILES: O=C(NC1CCN(Cc2ccccc2)CC1)c1ccc(OC2CCN(C(=O)c3ccc(F)cc3)CC2)c(Cl)c1 [Compound 22, N-(1-benzylpiperidin-4-yl)-3-chloro-4-(1-(4-fluorobenzoyl)piperidin-4-yloxy)benzamide]

- EC50: < 1 µM
SMILES: N#Cc1ccc(N2CCC(Oc3ccc(C(=O)NC4CCN(Cc5ccncc5)CC4)cc3F)CC2)cc1 [Compound 44, 4-(1-(4-cyanophenyl)piperidin-4-yloxy)-3-fluoro-N-(1-(pyridin-4-ylmethyl)piperidin-4-yl)benzamide]

- EC50: < 1 µM
SMILES: N#Cc1ccc(CN2CCC(NC(=O)c3ccc(OC4CCN(c5ccc(C(F)(F)F)cc5)CC4)c(F)c3)CC2)cc1 [Compound 43, N-(1-(4-cyanobenzyl)piperidin-4-yl)-3-fluoro-4-(1-(4-(trifluoromethyl)phenyl)piperidin-4-yloxy)benzamide]

- EC50: < 1 µM
SMILES: CC(C)(C)OC(=O)N1CCC(NC(=O)c2ccc(OC3CCN(Cc4ccc(C#N)cc4)CC3)cc2)CC1 [Compound 78, tert-butyl 4-(4-(1-(4-cyanobenzyl)piperidin-4-yloxy)benzamido)piperidine-1-carboxylate]

- EC50: < 1 µM
SMILES: O=C(NC1CCN(Cc2ccccc2)CC1)c1ccc(OC2CCN(Cc3ccc(OC(F)(F)F)cc3)CC2)c(F)c1 [Compound 57, N-(1-benzylpiperidin-4-yl)-3-fluoro-4-(1-(4-(trifluoromethoxy)benzyl)piperidin-4-yloxy)benzamide]

- EC50: < 1 µM
SMILES: O=C(NC1CCN(Cc2ccccc2)CC1)c1cc(Cl)c(OC2CCN(Cc3ccc(Cl)cc3)CC2)c(Cl)c1 [Compound 75, N-(1-benzylpiperidin-4-yl)-3,5-dichloro-4-(1-(4-chlorobenzyl)piperidin-4-yloxy)benzamide]

- EC50: < 1 µM
SMILES: O=C(NC1CCN(Cc2ccccc2)CC1)c1ccc(OC2CCN(Cc3cccc(C(F)(F)F)c3)CC2)c(F)c1 [Compound 59, N-(1-benzylpiperidin-4-yl)-3-fluoro-4-(1-(3-(trifluoromethyl)benzyl)piperidin-4-yloxy)benzamide]

- EC50: < 1 µM
SMILES: O=C(NC1CCN(Cc2ccccc2)CC1)c1ccc(OC2CCN(Cc3ccncc3)CC2)c(F)c1 [Compound 37, N-(1-benzylpiperidin-4-yl)-3-fluoro-4-(1-(pyridin-4-ylmethyl)piperidin-4-yloxy)benzamide]

- EC50: < 1 µM
SMILES: Cc1ccc(CN2CCC(Oc3ccc(C(=O)NC4CCN(Cc5ccc(Cl)cc5)CC4)cc3F)CC2)cc1 [Compound 73, N-(1-(4-chlorobenzyl)piperidin-4-yl)-3-fluoro-4-(1-(4-methylbenzyl)piperidin-4-yloxy)benzamide]

- EC50: 1 to 10 µM
SMILES: O=C(NC1CCN(Cc2ccccc2)CC1)c1ccc(OC2CCN(Cc3cccnc3)CC2)c(F)c1 [Compound 38, N-(1-benzylpiperidin-4-yl)-3-fluoro-4-(1-(pyridin-3-ylmethyl)piperidin-4-yloxy)benzamide]

- EC50: 1 to 10 µM
SMILES: COc1cc(C(=O)NC2CCN(Cc3ccccc3)CC2)ccc1OC1CCN(c2cccs2)CC1 [Compound 8, N-(1-benzylpiperidin-4-yl)-3-methoxy-4-(1-(thiophen-2-yl)piperidin-4-yloxy)benzamide]

- EC50: < 1 µM
SMILES: CC(C)S(=O)(=O)N1CCC(NC(=O)c2ccc(OC3CCN(c4ccc(C(F)(F)F)cc4)CC3)c(F)c2)CC1 [Compound 34, 3-fluoro-N-(1-(isopropylsulfonyl)piperidin-4-yl)-4-(1-(4-(trifluoromethyl)phenyl)piperidin-4-yloxy)benzamide]
